Laboratory results reported in PubChem BioAssay AID1963840 (Molecular Pharmacology Branch, DTP, NCI, 2024).

Tested on: 695427-040-R-J1-PDC complex spheroid viability
Assay: Anticancer human tumor 695427-040-R-J1-PDC patient-derived colon adenocarcinoma cell line growth inhibition [POLQ]
Details: for IC50: curve of first compound; for viability, T/C: stronger effect = lower value
Outline: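 Complex spheroid viability model combining PDC tumour cells with endothelial (HUVEC) and MSC stromal cells. Novobiocin, ART-558 or RP6685 were tested singly and in combination with standard and investigational anticancer drugs. Each was titrated in half-log steps from near clinical Cmax, or from 10 microM where Cmax was unknown.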

[1] = second compound 0.0316 µM, first compound 0.0316 µM
[2] = second compound 0.0316 µM, first compound 0.1 µM
[3] = second compound 0.0316 µM, first compound 0.316 µM
[4] = second compound 0.0316 µM, first compound 1 µM
[5] = second compound 0.0316 µM, first compound 3.16 µM
[6] = second compound 0.0316 µM, first compound 10 µM
[7] = second compound 0.1 µM, first compound 0.0316 µM
[8] = second compound 0.1 µM, first compound 0.1 µM
[9] = second compound 0.1 µM, first compound 0.316 µM
[10] = second compound 0.1 µM, first compound 1 µM
[11] = second compound 0.1 µM, first compound 3.16 µM
[12] = second compound 0.1 µM, first compound 10 µM
[13] = second compound 0.316 µM, first compound 0.0316 µM
[14] = second compound 0.316 µM, first compound 0.1 µM
[15] = second compound 0.316 µM, first compound 0.316 µM
[16] = second compound 0.316 µM, first compound 1 µM
[17] = second compound 0.316 µM, first compound 3.16 µM
[18] = second compound 0.316 µM, first compound 10 µM
[19] = second compound 1 µM, first compound 0.0316 µM
[20] = second compound 1 µM, first compound 0.1 µM
[21] = second compound 1 µM, first compound 0.316 µM
[22] = second compound 1 µM, first compound 1 µM
[23] = second compound 1 µM, first compound 3.16 µM
[24] = second compound 1 µM, first compound 10 µM
[25] = second compound 3.16 µM, first compound 0.0316 µM
[26] = second compound 3.16 µM, first compound 0.1 µM
[27] = second compound 3.16 µM, first compound 0.316 µM
[28] = second compound 3.16 µM, first compound 1 µM
[29] = second compound 3.16 µM, first compound 3.16 µM
[30] = second compound 3.16 µM, first compound 10 µM
[31] = second compound 10 µM, first compound 0.0316 µM
[32] = second compound 10 µM, first compound 0.1 µM
[33] = second compound 10 µM, first compound 0.316 µM
[34] = second compound 10 µM, first compound 1 µM
[35] = second compound 10 µM, first compound 3.16 µM
[36] = second compound 10 µM, first compound 10 µM
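Further: spheroids exposed to compounds for seven days.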
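Wherever viability, T/C is given: 100% = DMSO vehicle control viability.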

## CCCS(=O)(=O)Nc1ccc(F)c(C(=O)c2c[nH]c3ncc(-c4ccc(Cl)cc4)cc23)c1F + COC1C(OC(N)=O)C(O)C(Oc2ccc3c(O)c(NC(=O)c4ccc(O)c(CC=C(C)C)c4)c(=O)oc3c2C)OC1(C)C
Second compound 0.0316 µM
  IC50: > 10 µM
Second compound 0.1 µM
  IC50: > 10 µM
Second compound 0.316 µM
  IC50: > 10 µM
Second compound 1 µM
  IC50: > 10 µM
Second compound 3.16 µM
  IC50: > 10 µM
Second compound 10 µM
  IC50: > 10 µM
[1]
  viability, T/C: 102%
[2]
  viability, T/C: 102%
[3]
  viability, T/C: 98.2%
[4]
  viability, T/C: 111%
[5]
  viability, T/C: 116%
[6]
  viability, T/C: 80.7%
[7]
  viability, T/C: 103%
[8]
  viability, T/C: 94.3%
[9]
  viability, T/C: 108%
[10]
  viability, T/C: 111%
[11]
  viability, T/C: 107%
[12]
  viability, T/C: 78.6%
[13]
  viability, T/C: 106%
[14]
  viability, T/C: 98.1%
[15]
  viability, T/C: 97%
[16]
  viability, T/C: 105%
[17]
  viability, T/C: 118%
[18]
  viability, T/C: 88.7%
[19]
  viability, T/C: 102%
[20]
  viability, T/C: 108%
[21]
  viability, T/C: 102%
[22]
  viability, T/C: 109%
[23]
  viability, T/C: 107%
[24]
  viability, T/C: 81.7%
[25]
  viability, T/C: 110%
[26]
  viability, T/C: 107%
[27]
  viability, T/C: 100%
[28]
  viability, T/C: 106%
[29]
  viability, T/C: 109%
[30]
  viability, T/C: 79.4%
[31]
  viability, T/C: 107%
[32]
  viability, T/C: 102%
[33]
  viability, T/C: 91.8%
[34]
  viability, T/C: 113%
[35]
  viability, T/C: 116%
[36]
  viability, T/C: 77%

## CC1COCCN1c1cc(C2(O)CC3CCC(C2)O3)c2cnn(-c3ccn[nH]3)c2n1 (stereo unspecified) + Nc1ccc(C#CCN(C(=O)Cc2ncc(C(F)(F)F)cc2C(F)(F)F)c2ccc(F)cc2)nn1
Second compound 0.0316 µM
  IC50: > 10 µM
Second compound 0.1 µM
  IC50: > 10 µM
Second compound 0.316 µM
  IC50: > 10 µM
Second compound 1 µM
  IC50: > 10 µM
Second compound 3.16 µM
  IC50: > 10 µM
Second compound 10 µM
  IC50: > 10 µM
[1]
  viability, T/C: 103%
[2]
  viability, T/C: 92.9%
[3]
  viability, T/C: 83%
[4]
  viability, T/C: 78.6%
[5]
  viability, T/C: 65.9%
[6]
  viability, T/C: 60.5%
[7]
  viability, T/C: 111%
[8]
  viability, T/C: 96.5%
[9]
  viability, T/C: 88%
[10]
  viability, T/C: 76.3%
[11]
  viability, T/C: 69%
[12]
  viability, T/C: 56.3%
[13]
  viability, T/C: 99.4%
[14]
  viability, T/C: 96.7%
[15]
  viability, T/C: 76.7%
[16]
  viability, T/C: 72.4%
[17]
  viability, T/C: 70.3%
[18]
  viability, T/C: 54.5%
[19]
  viability, T/C: 106%
[20]
  viability, T/C: 95.3%
[21]
  viability, T/C: 84%
[22]
  viability, T/C: 70.5%
[23]
  viability, T/C: 66.4%
[24]
  viability, T/C: 49.5%
[25]
  viability, T/C: 104%
[26]
  viability, T/C: 87%
[27]
  viability, T/C: 86.4%
[28]
  viability, T/C: 66.6%
[29]
  viability, T/C: 62.4%
[30]
  viability, T/C: 58.6%
[31]
  viability, T/C: 106%
[32]
  viability, T/C: 91.2%
[33]
  viability, T/C: 78.3%
[34]
  viability, T/C: 65.1%
[35]
  viability, T/C: 58.9%
[36]
  viability, T/C: 56.9%

## CCc1c2c(nc3ccc(O)cc13)-c1cc3c(c(=O)n1C2)COC(=O)[C@]3(O)CC + Cc1cccc(N(C)C(=O)C2C(O)CCN2c2nc(C)cc(C(F)(F)F)c2C#N)c1
Second compound 0.0316 µM
  IC50: > 1 µM
Second compound 0.1 µM
  IC50: > 1 µM
Second compound 0.316 µM
  IC50: > 1 µM
Second compound 1 µM
  IC50: > 1 µM
Second compound 3.16 µM
  IC50: 0.912 µM
Second compound 10 µM
  IC50: 0.572 µM
Second compound 0.0316 µM, first compound 0.00316 µM
  viability, T/C: 101%
Second compound 0.0316 µM, first compound 0.01 µM
  viability, T/C: 90.1%
[1]
  viability, T/C: 83%
[2]
  viability, T/C: 81.7%
[3]
  viability, T/C: 66.1%
[4]
  viability, T/C: 51.4%
Second compound 0.1 µM, first compound 0.00316 µM
  viability, T/C: 99.6%
Second compound 0.1 µM, first compound 0.01 µM
  viability, T/C: 98.9%
[7]
  viability, T/C: 80.5%
[8]
  viability, T/C: 76.3%
[9]
  viability, T/C: 69.3%
[10]
  viability, T/C: 52.8%
Second compound 0.316 µM, first compound 0.00316 µM
  viability, T/C: 93.2%
Second compound 0.316 µM, first compound 0.01 µM
  viability, T/C: 92.8%
[13]
  viability, T/C: 90.7%
[14]
  viability, T/C: 75.8%
[15]
  viability, T/C: 67.4%
[16]
  viability, T/C: 49.7%
Second compound 1 µM, first compound 0.00316 µM
  viability, T/C: 96.2%
Second compound 1 µM, first compound 0.01 µM
  viability, T/C: 94.5%
[19]
  viability, T/C: 85.2%
[20]
  viability, T/C: 77.3%
[21]
  viability, T/C: 67.9%
[22]
  viability, T/C: 51.2%
Second compound 3.16 µM, first compound 0.00316 µM
  viability, T/C: 89.4%
Second compound 3.16 µM, first compound 0.01 µM
  viability, T/C: 84.9%
[25]
  viability, T/C: 82.2%
[26]
  viability, T/C: 82.8%
[27]
  viability, T/C: 66.3%
[28]
  viability, T/C: 48.6%
Second compound 10 µM, first compound 0.00316 µM
  viability, T/C: 84.2%
Second compound 10 µM, first compound 0.01 µM
  viability, T/C: 80.7%
[31]
  viability, T/C: 78.9%
[32]
  viability, T/C: 70.5%
[33]
  viability, T/C: 58.5%
[34]
  viability, T/C: 41.7%
